The results in this text go back to US7348300B2, “Acetylenic diol ethylene oxide/propylene oxide adducts and processes for their manufacture” (Air Products and Chemicals, Inc., priority 1999, dated 2008).

Series [1] in a line: Dynamic surface tension of aqueous solutions, maximum bubble pressure method. An excerpt:
In the following Examples dynamic surface tension data were obtained for aqueous solutions of various compounds using the maximum bubble pressure method at bubble rates from 0.1 bubbles/second (b/s) to 20 b/s. […] In practical terms, high bubble rates correspond to high printing speeds in lithographic printing, high spray or roller velocities in coating applications, and rapid application rates for agricultural products.
This value is a measure of the efficiency of a surfactant.
The critical aggregation concentrations (solubility limit or critical micelle concentration) were determined by intersection of the linear portion of a surface tension/ In concentration curve with the limiting surface tension as is described in many textbooks. […]
Process solutions containing 0.1 weight percent of a surfactant derived from 2,5,8,11-tetramethyl-6-dodecyne-5,8-diol or containing a fluorosurfactant, potassium perfluorooctane carboxylate provided by 3M of […]. were prepared in order to compare the equilibrium surface tension (EST) and dynamic surface tension (DST). The EST for both solutions was measured using the Wilhemy plate method on a […] manufactured by Kruss, Inc. of Charlotte, N.C. The DST of each process solution was measured via the maximum bubble pressure method.

Series [2] can be described thus: Ross-Miles foam test based upon ASTM D 1173-53. It counts as physicochemical. Particulars: 0.1 wt % solution. The method, then: In this test, a 0.1 wt % solution of the surfactant is added from an elevated foam pipette to a foam receiver containing the same solution. The foam height is measured at the completion of the addition (“Initial Foam Height”) and the time required for the foam to dissipate is recorded (“Time to 0 Foam”). This test provides a comparison between the foaming characteristics of various surfactant solutions. In general, in coatings, inks, and agricultural formulations, foam is undesirable because is complicates handling and can lead to coating and print defects, and to inefficient application of agricultural materials.

The nature of series [3]: Equilibrium surface tension, Wilhemy plate method. It is filed as physicochemical. Particulars: 0.1 wt %.
Procedure: Process solutions containing 0.1 weight percent of a surfactant derived from 2,5,8,11-tetramethyl-6-dodecyne-5,8-diol or containing a fluorosurfactant, potassium perfluorooctane carboxylate provided by 3M of St. Louis, Mo. were prepared in order to compare the equilibrium surface tension (EST) and dynamic surface tension (DST). The EST for both solutions was measured using the Wilhemy plate method on a Kruss BP3 bubble pressure tensiometer manufactured by Kruss, Inc. of Charlotte, N.C.

Where two headings read alike, the source gives them in different places.

Consider “10 mole EO/2 mole PO block derivative of 2,4,7,9-tetramethyl-5-decyne-4,7-diol [Example 5]”, for which, in series [1] (solubility limit or critical micelle concentration in water), the “Sol Limit / critical aggregation concentration (CAG)” value is recorded as “(0.78) wt %”. Moreover, in series [2], the “RM Foam initial (Initial Foam Height)” value is 2.1 cm and the “RM Foam, foam height after 5 minutes” value is on record as 1.3 cm.

Regarding “3.5 mole ethoxylate of 2,4,7,9-tetramethyl-5-decyne-4,7-diol capped with 2 moles of propylene oxide [Example 3]”, the “Sol Limit / critical aggregation concentration (CAG)” value in series [1] is 0.21 wt %. In series [2], the “RM Foam initial (Initial Foam Height)” value worked out at 1.0 cm and the “RM Foam t to 0 (Time to 0 Foam)” value was 10 s.

In series [3], `O=C([O-])C(F)(F)C(F)(F)C(F)(F)C(F)(F)C(F)(F)C(F)(F)C(F)(F)C(F)(F)F.[K+]` [Fluorosurfactant, potassium perfluorooctane carboxylate, reference compound] showed an EST of 21.2 dyne/cm.
